Consider twelve compounds from patent publication US20140088124A1, “IMIDAZOLE DERIVATIVES” (priority 2011, published 2014).

This test concerns the target T1, human DGAT1 enzyme expressed in Sf9 insect cells prepared as microsomes (Homo sapiens, UniProt O75907).
T1 construct: made in house; host or cells: Sf9 insect cells (microsomes)
T1 sequence (O75907 1-488): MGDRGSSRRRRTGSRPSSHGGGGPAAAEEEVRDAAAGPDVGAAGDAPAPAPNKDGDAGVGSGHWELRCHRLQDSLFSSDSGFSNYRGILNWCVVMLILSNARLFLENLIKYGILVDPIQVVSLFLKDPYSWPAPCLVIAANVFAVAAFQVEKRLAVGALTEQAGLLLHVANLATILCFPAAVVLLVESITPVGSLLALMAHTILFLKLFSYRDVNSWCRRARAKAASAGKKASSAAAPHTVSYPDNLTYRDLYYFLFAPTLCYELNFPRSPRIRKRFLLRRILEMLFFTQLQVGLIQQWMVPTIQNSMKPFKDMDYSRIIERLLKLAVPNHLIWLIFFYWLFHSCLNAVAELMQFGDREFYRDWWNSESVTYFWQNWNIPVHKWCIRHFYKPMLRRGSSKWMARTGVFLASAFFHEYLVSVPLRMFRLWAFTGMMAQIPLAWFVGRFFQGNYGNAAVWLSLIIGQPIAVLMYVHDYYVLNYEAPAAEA
In words: in vitro assay to identify DGAT1 inhibitors ([14C]-palmitoyl-CoA, wheat germ agglutinin beads, TopCount). The class given is biochemical. Conditions: 2 hours at room temperature. The protocol:
If compounds 141-162 were assayed they were assayed as follows: the in vitro assay to identify DGAT1 inhibitors uses human DGAT1 enzyme expressed in Sf9 insect cells prepared as microsomes. The reaction is initiated by the addition of the combined substrates 1,2-dioleoyl-sn-glycerol and [^14C]-palmitoyl-Co A and incubated with test compounds and microsomal membranes for 2 hours at room temperature. The assay is stopped by adding 0.5 mg wheat germ agglutinin beads in assay buffer with 1% Brij-35 and 1% 3-cholamidopropyldimethyl-ammonio-1-propane sulfonate. Plates are sealed with TopSeal and incubated for 18 hours to allow the radioactive triglyceride product to come into proximity with the bead. Plates are read on a TopCount instrument.
Percent inhibition was calculated as the percent of (test compound inhibition minus non-specific binding) relative to (total binding minus non-specific binding). IC50 values were determined by curve fitting the data to a Sigmoidal dose-response in GraphPad Prism utilizing the following equation:
Y=A+(B−A)/(1+10̂((Log IC50−X))),
where A and B are the bottom and top of the curve (highest and lowest inhibition), respectively, and X is the logarithm of concentration.
As usually defined, the IC50 is the concentration needed to halve the response being measured. A high value points to weaker potency in that assay. Take `O=C(O)c1ccc(OCC2CCN(c3ccc(-c4nc5cc(Cl)ccc5[nH]4)cn3)CC2)cc1` [Example 150, 4-[[1-[5-(6-Chloro-1H-benzimidazol-2-yl)-2-pyridinyl]-4-piperidinyl]methoxy]benzoic acid]: the 50% inhibitory concentration (IC50) was determined as 67 nM.
Regarding `COC(=O)c1ccccc1OCC1CCN(c2ccc(-c3nc4cc(C(F)(F)F)ccc4[nH]3)cn2)CC1` [Example 151], the IC50 came to 2700 nM.
`O=C(O)c1ccccc1OCC1CCN(c2ccc(-c3nc4cc(C(F)(F)F)ccc4[nH]3)cn2)CC1` [Example 152]: inhibition was half-maximal at 14 nM (IC50).
With `O=C(O)c1ccccc1OCC1CCN(c2ccc(-c3nc4cc(Cl)ccc4[nH]3)cn2)CC1` [Example 153] the figure was 85 nM.
With `O=C(O)c1ccc(F)cc1OCC1CCN(c2ccc(-c3nc4cc(Cl)ccc4[nH]3)cn2)CC1` [Example 154] the figure was 58 nM.
`O=C(O)c1ccc(F)cc1OCC1CCN(c2ccc(-c3nc4cc(C(F)(F)F)ccc4[nH]3)cn2)CC1` [Example 155] yielded a half-inhibitory concentration (IC50) of 31 nM.
`Cc1ccc(C(=O)O)cc1OCC1CCN(c2ccc(-c3nc4cc(Cl)ccc4[nH]3)cn2)CC1` [Example 156]: inhibition was half-maximal at 12 nM (IC50).
In the case of `Cc1ccc(C(=O)O)cc1OCC1CCN(c2ccc(-c3nc4cc(C(F)(F)F)ccc4[nH]3)cn2)CC1` [Example 157], the midpoint of inhibition, the IC50, lay at 15 nM.
Compound `CC(C)(COCC1CCN(c2ccc(-c3nc4cc(Cl)ccc4[nH]3)cn2)CC1)C(=O)O` [Example 159] yielded an IC50 of 108 nM.
The compound `CC(C)(COCC1CCN(c2ccc(-c3nc4cc(C(F)(F)F)ccc4[nH]3)cn2)CC1)C(=O)O` [Example 160] returned a 50% inhibitory concentration (IC50) of 84 nM.
With `O=C(O)C1(COCC2CCN(c3ccc(-c4nc5cc(Cl)ccc5[nH]4)cn3)CC2)CCC1` [Example 161] the figure was 95 nM; with `O=C(O)C1(COCC2CCN(c3ccc(-c4nc5cc(C(F)(F)F)ccc5[nH]4)cn3)CC2)CCC1` [Example 162], 62 nM.
